What all share (type): cell-based, human
One assay deals with p16. In words: Western blot of p16 in CAL-27 cells. To be noted: synchronized CAL-27 cells, 9 h. The method, then: (§1) The SCC-1 (UM-SCC-1) cell line was obtained from the University of Michigan Cancer Research Laboratory, and CAL-27 and SCC-4 cells were obtained from the American Type Culture Collection (Manassas, Va.). SCC-1 and CAL-27 cells were cultured in DMEM media, whereas SCC-4 cells were grown in 1:1 Hams F-12 DMEM media. All media was supplemented with 10% fetal bovine serum (HyClone, Logan, Utah), 1.2% sodium bicarbonate, and 5000 units/ml penicillin, 5 μg/ml streptomycin and 10 μg/ml neomycin. OGF was purchased from Sigma-Aldrich (St. Louis, Mo.), dissolved in sterile water, and used at a final concentration of 10^−6 M.
Synchronized cells (˜2×10^6) from each treatment were solubilized in 200 μl RIPA buffer (1×PBS, 10 μM IGEPAL, 1 mg/ml SDS, 5 mg/ml deoxycholic acid), containing protease and phosphatase inhibitors (2 μg/ml aprotinin, 3 mg/ml phenylmethyl sulfonyl fluoride (PMSF), 1 mM sodium orthovanidate, 1 μM okadaic acid). Total protein concentrations were measured using the DC protein assay kit (Bio-Rad Laboratories, Hercules, Calif.). Equal amounts of protein (40 μg) were subjected to 10% SDS-PAGE followed by transfer of proteins onto polyvinylidene difluoride (Millipore, Billerica, Mass.) using standard protocols. […]

A further assay relates to p21/Cdk2 complex. Nature of the assay: Cdk2 immunoprecipitation, p21/Cdk2 and cyclin E/Cdk2 complexes in BxPC-3 cells. An excerpt: Cell extracts were subjected to immunoprecipitation using antibodies against Cdk2 and protein A beads. Immunoprecipitates were separated on a 15% SDSPAGE gel, and membrane blots probed with p21 antibodies (1:100), and developed using a chemiluminescence Western blotting detection system. Blots were reprobed with Cdk2 antibody (1:200).

The next assay concerns BxPC-3 cells. In words: Growth of BxPC-3 cells transfected with p21 siRNA or negative control siRNA. Conditions: for reduction in growth: negative control siRNA-transfected BxPC-3 cells. The method, then:
The p21-targeted siRNAs were obtained from Santa Cruz Biotechnology, and negative control siRNAs were purchased from Ambion (Ambion, Inc., Austin, Tex.). For transfection, 2×10^5 cells per well were seeded in 6-well plates containing 1 ml of media without antibiotics. For each well, 1 μl of siRNA stock (20 μM) was mixed with 175 μl of serum-free media. Two μl of Oligofectamine reagent (Invitrogen, Carlsbad, Calif.) was added to prewashed cells in each well, making the final concentration for siRNA approximately 20 nM. Cells were incubated for 4 hours at 37° C. prior to the addition of OGF. Eighteen hours later, 1 ml fresh complete media with or without OGF was added to the cultures; media and OGF were replaced daily. At the indicated time points, cells were collected for growth curves or Western blotting.

A further assay relates to SCC-1 cells. Nature of the assay: Growth curves of SCC-1 cells (viable cell counts, hemacytometer). To be noted: 10^-6 M OGF. As to the method: as §1
Cell growth and flow cytometry. For growth curves, cells were seeded in 6-well plates at an initial density of ˜2×10^5 cells/well. Fresh media and OGF were added 24 h after initial seeding, and media and OGF were replaced daily. At appropriate times, the cells were washed with PBS, trypsinized, and viable cell numbers were counted by trypan blue exclusion using a hemacytometer.

Entries after “also recorded” stand apart in the source; their conditions may differ.

In the case of [Met^5]-enkephalin [OGF], the “p16 expression relative to controls” value in the assay on p16 is on record as “increased p16 expression”. For the same substance, in the assay on p21/Cdk2 complex (3, 6, 9, 12, 15, 18, and 21 hours, significant (p<0.05) at 15 hours), the “levels of the p21/Cdk2 complex” value was “elevated at all time points; also recorded: increase at 9, 12, 15, 18, and 21 hours”. Moreover, in the assay with p21/Cdk2 complex (after treatment with OGF), the “level of the cyclin E/Cdk2 complex” value is “no change”. For the same substance, in the assay with BxPC-3 cells (BxPC-3 cells, 10^-6 M OGF), the “effect on cell growth of cells transfected with p21 siRNA” value is “no effect”. The “Cell numbers vs transfected cells receiving sterile water” value with BxPC-3 cells (BxPC-3 cultures transfected with negative control siRNA, 10^-6 M OGF (FIG. 8)) is listed as “significantly reduced”. The reduction in growth is 17.8% with BxPC-3 cells (10^-6 M OGF, 48 hours); 28.6% in the assay with BxPC-3 cells (10^-6 M OGF, 72 hours); 35.8% in the assay on BxPC-3 cells (10^-6 M OGF, 96 hours); 33.0% with BxPC-3 cells (10^-6 M OGF, 120 hours). For the same substance, the “Cell number compared to controls” value was determined as 87.5% with SCC-1 cells (72 h) and 59.0% in the assay on SCC-1 cells (96 h). The mean doubling time result in the assay with SCC-1 cells (linear regression of growth data) was “approximately 41.3 h”.

(Values after patent US7807368B2, “Cyclin-dependent kinase inhibitors as targets for opiod growth factor treatment” (priority 2006, dated 2010).)
